{
  "source": "paper PMC11434354",
  "about": "“Metabolic and Pharmacokinetic Profiling Studies of N, N-Dimethylaniline-Heliamine in Rats by UHPLC-Q-Orbitrap MS/MS” (Molecules, 2024)",
  "key": {"[1]": {"experiment": "Metabolite identification of DH in rat plasma, urine, feces and rat liver microsomes by UHPLC-Q-Orbitrap MS/MS", "format": "in vivo", "conditions": "rat plasma", "method": "For the analysis of DH metabolites, the same UHPLC-MS/MS system was used for the plasma analysis, and the ACQUIT UHPLC BEH C18 column was also utilized. Mobile phase A consisted of 0.1% formic acid in water (v/v), while mobile phase B comprised acetonitrile. The flow rate was maintained at 0.2 mL/min, with a 10 µL injection volume. The column temperature was kept constant at 35 °C, and the RS autosampler temperature was maintained at 10 °C. The gradient elution was as follows: 0–3 min(5%B), 3–11 min (7%B), 11–18 min (7%B), and 18–45 min (30%B). A full MS/dd MS^2 mode in positive heated electrospray ionization (HESI) with 140,000 (for MS) and 17,500 (for MS/MS) resolutions was used for the Q–Exactive Plus Orbitrap MS. The compounds identified in full MS/dd MS^2 mode will be scanned using PRM scanning. The following MS parameters were employed: AGC target, 1 × 10^6; Maximum IT, 100 ms; Spray voltage, 3.2 kV; Capillary temp, 320 °C; S-lens RF level, 55; HCD Energy 20, 40, and 60.\nRat liver microsomes were used for in vitro experiments to study DH metabolism in rats more quickly and easily. After that, the cofactors of phases I and II were added to create the phase I and phase II metabolic systems. The composition of the reagent kit and the procedure can be found in our previous work.\nFor the plasma study, 100 µL of plasma was obtained from rats at 0.5, 1, 2, and 4 h after medicine administration. Then, 300 µL of acetonitrile was added to the above plasma, vortexed for 1 min, and centrifuged for 7 min. The supernatant was collected, and the remaining liquid was dried using nitrogen gas at 40 °C. The blow-dried samples were re-dissolved in 100 µL methanol, sonicated for 1 min, and centrifuged for 7 min.\nUrine was collected during the period spanning from 0 to 48 h following administration, with each period’s combined urine comprising 10 mL and 30 mL of acetonitrile added thereto. After a 10 min interval of sonication, the urine samples were transferred into 1.5 mL centrifuge tubes, vortexed for 1 min, and then centrifuged at a speed of 14,000 rpm for 10 min. Successively, the supernatant was merged and subjected to drying by nitrogen gas at 40 °C. The blow-dried samples were re-dissolved in 100 µL of methanol, sonicated for 1 min, and centrifuged for 7 min.\nFor the fecal study, feces were collected within 0–48 h following administration, dried to powder at room temperature in a shaded area, and combined to yield 8 mL per period, to which 40 mL of acetonitrile was added. Following 30 min of sonication, the samples were transferred to 1.5 mL centrifuge tubes and centrifuged at 14,000 rpm for 10 min. The supernatant was collected and dried with nitrogen at 40 °C before analysis via UHPLC-MS/MS. Before analysis, the blow-dried samples were re-dissolved in 100 µL of methanol, sonicated for 1 min, and centrifuged for 7 min.\nCompound Discovery 3.3 was used for data processing. The MS spectrometric features mainly include retention time, exact mass, peak intensity, and fragment ions. The data processing mainly included selecting spectra, aligning retention times, creating pattern traces, creating fish traces, generating expected compounds, finding expected compounds, grouping expected compounds, fish scoring, and marking background compounds. The mass tolerance is less than 5 ppm."}, "[2]": {"experiment": "Long-term storage stability of DH stock solutions", "format": "physicochemical", "method": "(§1) Although acetonitrile precipitates most of the protein, plasma samples contain phospholipids, metabolites, etc., that interfere with the detection of DH and IS. Specificity was mainly examined at DH and IS retention times without interference peaks in blank plasma. In addition, samples tested after administration should not show interfering peaks at the DH and IS peak times. The standard curves were made up of 8 nonzero analyte points, and the linearity was tested. The correlation of peak area (analyte/IS) with the labeled plasma concentration was plotted for regression analysis. This analyte was predicted to have a correlation coefficient (r^2) of more than 0.99 with the corresponding standard curve. The relative standard deviation (RSD) and relative error (RE) values were calculated by measuring six repeated QC samples on the same day to evaluate the intra-day precision and accuracy. Inter-day precision and accuracy were characterized by RSD and RE, respectively. The recoveries were determined by examining the ratio of the peak areas of DH before and after extraction. The matrix effect is the ratio of the peak area of DH added to plasma and DH dissolved in the solvent. The stability evaluation should guarantee that the concentration of the analyte remains unchanged throughout the sample preparation and analysis process, as well as during storage. Stability studies include long-term storage stability at −80 °C (1, 7 and 15 days); repeated freeze–thaw stability; autosampler stability; room temperature stability; and long-term storage stability of stock solutions."}, "[3]": {"experiment": "Stability of DH in rat plasma samples (autosampler, −80 °C storage, room temperature, freeze–thaw)", "format": "in vitro ADME", "conditions": "for Accuracy, 4 h / Accuracy, 8 h / Accuracy, 12 h: autosampler; for Accuracy, Room temper: room temperature; for Accuracy, 1 day / Accuracy, 7 days / Accuracy, 15 days: stored at −80 °C; for Accuracy, Thaw: three freeze–thaw cycles", "method": "Three concentrations were used to test the stability of plasma samples in a variety of circumstances. […] Its accuracy range was 97.46–109.44%. When samples were stored at −80 °C, the accuracy of the samples ranged from 99.44% to 109.22% at three concentrations on days 1, 7, and 15. The prepared QC samples were placed in the autosampler and injected at 4, 8, and 12 h. The accuracy was calculated to be in the range of 103.34–110.57%. The prepared stability samples were stored at −80 °C and the accuracy range was measured from 97.37% to 104.56% after three sequential freeze–thaw cycles.\nDH was added to the blank plasma to produce concentrations of 1, 10, 100, and 500 ng/mL QC samples. Then, 10 µL DH was added to blank plasma and vortexed for 3 s. Next, 10 µL IS was added to the plasma and vortexed for 3 s, while 300 µL of acetonitrile was added to the above plasma, vortexed for 1 min, and centrifuged for 7 min. The mixture supernatant was collected and blown dry at 40 °C under nitrogen. Blow-dried samples were re-dissolved in 100 μL of 30% acetonitrile in water and centrifuged for 7 min.\nas §1"}, "[4]": {"test_system": "Sarcoplasmic reticulum RyR2Ca^2+ channels", "parameters": "method as in doi:10.13005/bpj/1892", "conditions": "cited from earlier work"}, "[5]": {"parameters": "method as in doi:10.37547/TAJMSPR/Volume02Issue07-17", "conditions": "cited from earlier work"}, "[6]": {"conditions": "nominal concentration 100 ng/mL"}, "[7]": {"conditions": "nominal concentration 500 ng/mL"}},
  "data": [
    {"smiles": "COc1cc2c(cc1OC)C(c1ccc(N(C)C)cc1)NCC2", "note": "(stereo not shown) [DH, N, N-dimethylaniline-heliamine]", "values": [
      {"measurement": "Rat and LM* (matrices in which DH or the metabolite was detected)", "setting": "[1]", "value": "P*, U*, F*, LM*"},
      {"measurement": "Accuracy, Stock solution", "setting": "[2]; nominal concentration 10 ng/mL", "value": 104.96, "unit": "%"},
      {"measurement": "Accuracy, Stock solution", "setting": "[2]; [6]", "value": 99.49, "unit": "%"},
      {"measurement": "Accuracy, Stock solution", "setting": "[2]; [7]", "value": 96.24, "unit": "%"},
      {"measurement": "Accuracy, 4 h", "setting": "[3]; nominal concentration 10 ng/mL", "value": 110.30, "unit": "%"},
      {"measurement": "Accuracy, 8 h", "setting": "[3]; nominal concentration 10 ng/mL", "value": 108.80, "unit": "%"},
      {"measurement": "Accuracy, 12 h", "setting": "[3]; nominal concentration 10 ng/mL", "value": 110.57, "unit": "%"},
      {"measurement": "Accuracy, 4 h", "setting": "[3]; [6]", "value": 106.65, "unit": "%"},
      {"measurement": "Accuracy, 8 h", "setting": "[3]; [6]", "value": 106.69, "unit": "%"},
      {"measurement": "Accuracy, 12 h", "setting": "[3]; [6]", "value": 103.81, "unit": "%"},
      {"measurement": "Accuracy, 4 h", "setting": "[3]; [7]", "value": 105.03, "unit": "%"},
      {"measurement": "Accuracy, 8 h", "setting": "[3]; [7]", "value": 103.54, "unit": "%"},
      {"measurement": "Accuracy, 12 h", "setting": "[3]; [7]", "value": 103.34, "unit": "%"},
      {"measurement": "time stable in rat plasma samples", "setting": "[3]; kept at room temperature", "value": "at least 12 h"},
      {"measurement": "Accuracy, Room temper", "setting": "[3]; nominal concentration 10 ng/mL", "value": 109.44, "unit": "%"},
      {"measurement": "Accuracy, Room temper", "setting": "[3]; [6]", "value": 101.36, "unit": "%"},
      {"measurement": "Accuracy, Room temper", "setting": "[3]; [7]", "value": 97.46, "unit": "%"},
      {"measurement": "Accuracy, 1 day", "setting": "[3]; nominal concentration 10 ng/mL", "value": 109.12, "unit": "%"},
      {"measurement": "Accuracy, 7 days", "setting": "[3]; nominal concentration 10 ng/mL", "value": 108.43, "unit": "%"},
      {"measurement": "Accuracy, 15 days", "setting": "[3]; nominal concentration 10 ng/mL", "value": 106.68, "unit": "%"},
      {"measurement": "Accuracy, 1 day", "setting": "[3]; [6]", "value": 103.58, "unit": "%"},
      {"measurement": "Accuracy, 7 days", "setting": "[3]; [6]", "value": 106.23, "unit": "%"},
      {"measurement": "Accuracy, 15 days", "setting": "[3]; [6]", "value": 101.13, "unit": "%"},
      {"measurement": "Accuracy, 1 day", "setting": "[3]; [7]", "value": 99.17, "unit": "%"},
      {"measurement": "Accuracy, 7 days", "setting": "[3]; [7]", "value": 105.59, "unit": "%"},
      {"measurement": "Accuracy, 15 days", "setting": "[3]; [7]", "value": 94.99, "unit": "%"},
      {"measurement": "Accuracy, Thaw", "setting": "[3]; nominal concentration 10 ng/mL", "value": 100.00, "unit": "%"},
      {"measurement": "Accuracy, Thaw", "setting": "[3]; [6]", "value": 104.56, "unit": "%"},
      {"measurement": "Accuracy, Thaw", "setting": "[3]; [7]", "value": 97.37, "unit": "%"},
      {"measurement": "inhibition of sarcoplasmic reticulum RyR2 Ca2+ channels", "setting": "[4]", "value": "inhibited"},
      {"measurement": "antiarrhythmic activity", "setting": "[5]", "value": "promising antiarrhythmic activity"}
    ]}
  ]
}
